“And” between values parts separate entries of the source, which are not always exact repeats. Equal values may be shown once. Inconclusive results and toxic doses are left out.
System: BDF1 mice, Lewis lung carcinoma iv, survival T/C
Experiment: NCI In Vivo Anticancer Drug Screen. Data for tumor model Lewis Lung Carcinoma (intravenous) in B6D2F1 (BDF1) mice
Conditions: endpoint: median survival time, higher = longer survival
Description: The antitumor activity of compounds was measured in mice bearing transplantable tumors. Survival or tumor size were measured and the results are expressed as the measurement made in the treated group (T) divided by the measurement made in the vehicle treated control group (C). The tumor model used in this assay is Lewis Lung Carcinoma (intravenous) in B6D2F1 (BDF1) mice

[1] = dose: 1.0 mg/kg/injection, schedule: Q01DX009 (ip), vehicle: Klucel (hydroxypropylcellulose) (HPC)
[2] = dose: 2.0 mg/kg/injection, schedule: Q01DX009 (ip), vehicle: Klucel (hydroxypropylcellulose) (HPC)
[3] = dose: 25.0 mg/kg/injection, schedule: Q01DX009 (ip), vehicle: saline with Tween-80
[4] = dose: 50.0 mg/kg/injection, schedule: Q01DX009 (ip), vehicle: saline with Tween-80
[5] = dose: 100.0 mg/kg/injection, schedule: Q01DX009 (ip), vehicle: saline with Tween-80
[6] = dose: 25.0 mg/kg/injection, schedule: Q01DX009 (ip), vehicle: Klucel (hydroxypropylcellulose) (HPC)
[7] = dose: 12.5 mg/kg/injection, schedule: Q01DX009 (ip), vehicle: saline with Tween-80
[8] = dose: 200.0 mg/kg/injection, schedule: Q01DX009 (ip), vehicle: saline with Tween-80
[9] = dose: 400.0 mg/kg/injection, schedule: Q01DX009 (ip), vehicle: saline with Tween-80
[10] = dose: 0.78 mg/kg/injection, schedule: Q01DX009 (ip), vehicle: saline
[11] = dose: 1.56 mg/kg/injection, schedule: Q01DX009 (ip), vehicle: saline
[12] = dose: 32.0 mg/kg/injection, schedule: Q01DX009 (ip), vehicle: Klucel (hydroxypropylcellulose) (HPC)

CC(C)CCCCCCCCCCCCC(=O)NCC(=O)NC1C(O)C(O)C(Nc2ncnc3nc[nH]c23)OC1C(O)CO (stereo not drawn) was tested, and the T/C (dose: 0.25 mg/kg/injection, schedule: Q01DX009 (ip), vehicle: Klucel (hydroxypropylcellulose) (HPC)) was 102 % of control, the T/C [1] was 90 % of control and the T/C [2] was 93 % of control.

In the case of Nc1ccc2ccc(O)cc2c1, the T/C [3] is reported as 100 % of control, the T/C [4] is reported as 99 % of control and the T/C [5] is reported as 91 % of control.

CN(C)c1ccc2c(SCC(=O)OCC(=O)[C@@]3(O)CC[C@H]4[C@@H]5CCC6=CC(=O)C=C[C@]6(C)[C@H]5C(=O)C[C@@]43C)c3ccc(N(C)C)cc3nc2c1 was tested, and the T/C [6] was 104 % of control, the T/C (dose: 50.0 mg/kg/injection, schedule: Q01DX009 (ip), vehicle: Klucel (hydroxypropylcellulose) (HPC)) was 106 % of control and the T/C (dose: 100.0 mg/kg/injection, schedule: Q01DX009 (ip), vehicle: Klucel (hydroxypropylcellulose) (HPC)) was 107 % of control. For the same compound, the T/C (dose: 200.0 mg/kg/injection, schedule: Q01DX009 (ip), vehicle: Klucel (hydroxypropylcellulose) (HPC)) was 102 % of control and the T/C (dose: 400.0 mg/kg/injection, schedule: Q01DX009 (ip), vehicle: Klucel (hydroxypropylcellulose) (HPC)) was 107 % of control.

In the case of NC(=O)c1cn(C2OC(CO)C(O)C2O)c2ncnc(N)c12 (stereo not drawn), the T/C (dose: 0.38 mg/kg/injection, schedule: Q01DX009 (ip), vehicle: Klucel (hydroxypropylcellulose) (HPC)) is reported as 95 % of control, the T/C (dose: 0.75 mg/kg/injection, schedule: Q01DX009 (ip), vehicle: Klucel (hydroxypropylcellulose) (HPC)) is reported as 101 % of control and the T/C (dose: 1.5 mg/kg/injection, schedule: Q01DX009 (ip), vehicle: Klucel (hydroxypropylcellulose) (HPC)) is reported as 92 % of control.

For CC1(C)CC23C4COC(=O)C2CCC1C3CC4=O (stereo not drawn), the T/C (dose: 1.5 mg/kg/injection, schedule: Q01DX009 (ip), vehicle: DMSO) was 109 % of control, the T/C (dose: 6.0 mg/kg/injection, schedule: Q01DX009 (ip), vehicle: DMSO) was 161 % of control and the T/C (dose: 12.0 mg/kg/injection, schedule: Q01DX009 (ip), vehicle: DMSO) was 285 % of control. For the same compound, the T/C (dose: 24.0 mg/kg/injection, schedule: Q01DX009 (ip), vehicle: DMSO) was 185 % of control and the T/C (dose: 48.0 mg/kg/injection, schedule: Q01DX009 (ip), vehicle: DMSO) was 180 % of control.

With O=CN(SSN(C=O)C1CCCCC1)C1CCCCC1 the T/C [7] was 114 % of control, the T/C [3] was 108 % of control and the T/C [4] was 99 % of control. For the same compound, the T/C [5] was 95 % of control, the T/C [8] was 101 % of control and the T/C [9] was 87 % of control.

In the case of CNC(=O)c1cccc2c(Nc3ccc(NS(C)(=O)=O)cc3OC)c3cccc(C)c3nc12, the T/C (dose: 0.39 mg/kg/injection, schedule: Q01DX009 (ip), vehicle: water) is reported as 100 % of control, the T/C (dose: 1.56 mg/kg/injection, schedule: Q01DX009 (ip), vehicle: water) is reported as 112 % of control and the T/C (dose: 3.12 mg/kg/injection, schedule: Q01DX009 (ip), vehicle: water) is reported as 89 % of control.

For [Cl][Hg][Cl], the T/C (dose: 0.2 mg/kg/injection, schedule: Q01DX009 (ip), vehicle: saline) was 95 % of control, the T/C (dose: 0.4 mg/kg/injection, schedule: Q01DX009 (ip), vehicle: saline) was 99 % of control and the T/C [10] was 93 % of control. The T/C [11] was 93 % of control.

For S=c1nc[nH]c2nc[nH]c12, the T/C (dose: 7.5 mg/kg/injection, schedule: Q01DX009 (ip), vehicle: Klucel (hydroxypropylcellulose) (HPC)) was 97 % of control, the T/C (dose: 15.0 mg/kg/injection, schedule: Q01DX005 (ip), vehicle: Klucel (hydroxypropylcellulose) (HPC)) was 98 % of control and the T/C (dose: 15.0 mg/kg/injection, schedule: Q01DX009 (ip), vehicle: Klucel (hydroxypropylcellulose) (HPC)) was 113 % of control and 87 % of control. The T/C (dose: 30.0 mg/kg/injection, schedule: Q01DX005 (ip), vehicle: Klucel (hydroxypropylcellulose) (HPC)) was 122 % of control, the T/C (dose: 30.0 mg/kg/injection, schedule: Q01DX009 (ip), vehicle: Klucel (hydroxypropylcellulose) (HPC)) was 92 % of control and 108 % of control and the T/C (dose: 60.0 mg/kg/injection, schedule: Q01DX005 (ip), vehicle: Klucel (hydroxypropylcellulose) (HPC)) was 93 % of control. For the same compound, the T/C (dose: 120.0 mg/kg/injection, schedule: Q01DX005 (ip), vehicle: Klucel (hydroxypropylcellulose) (HPC)) was 103 % of control and the T/C (dose: 240.0 mg/kg/injection, schedule: Q01DX005 (ip), vehicle: Klucel (hydroxypropylcellulose) (HPC)) was 95 % of control.

For CC/C(=C(/CC)c1ccc(O)cc1)c1ccc(O)cc1, the T/C (dose: 12.5 mg/kg/injection, schedule: Q01DX009 (ip), vehicle: water) was 123 % of control, the T/C (dose: 25.0 mg/kg/injection, schedule: Q01DX009 (ip), vehicle: water) was 102 % of control and the T/C (dose: 50.0 mg/kg/injection, schedule: Q01DX009 (ip), vehicle: water) was 102 % of control. The T/C (dose: 100.0 mg/kg/injection, schedule: Q01DX009 (ip), vehicle: water) was 106 % of control and the T/C (dose: 200.0 mg/kg/injection, schedule: Q01DX009 (ip), vehicle: water) was 120 % of control.

With O=C(C1CO1)C(Cl)(Cl)Cl (stereo not drawn) the T/C (dose: 12.5 mg/kg/injection, schedule: Q01DX009 (ip), vehicle: saline) was 98 % of control and the T/C (dose: 25.0 mg/kg/injection, schedule: Q01DX009 (ip), vehicle: saline) was 102 % of control.

With ClCC[Se](Cl)(Cl)c1ccccc1 the T/C [10] was 98 % of control, the T/C [11] was 109 % of control and the T/C (dose: 3.0 mg/kg/injection, schedule: Q01DX009 (ip), vehicle: saline) was 114 % of control.

For O=NN(CCCl)C(=O)NC1CCCCC1, the T/C [1] was 106 % of control, the T/C [2] was 108 % of control and the T/C (dose: 4.0 mg/kg/injection, schedule: Q01DX009 (ip), vehicle: Klucel (hydroxypropylcellulose) (HPC)) was 120 % of control. For the same compound, the T/C (dose: 8.0 mg/kg/injection, schedule: Q01DX009 (ip), vehicle: Klucel (hydroxypropylcellulose) (HPC)) was 213 % of control, the T/C (dose: 16.0 mg/kg/injection, schedule: Q01DX009 (ip), vehicle: Klucel (hydroxypropylcellulose) (HPC)) was 118 % of control and the T/C [12] was 93 % of control.

With C=C(Cl)C(=NC(C)(C)C)Nc1ccccc1C the T/C (dose: 3.12 mg/kg/injection, schedule: Q01DX009 (ip), vehicle: Klucel (hydroxypropylcellulose) (HPC)) was 100 % of control, the T/C (dose: 6.25 mg/kg/injection, schedule: Q01DX009 (ip), vehicle: Klucel (hydroxypropylcellulose) (HPC)) was 110 % of control and the T/C (dose: 12.5 mg/kg/injection, schedule: Q01DX009 (ip), vehicle: Klucel (hydroxypropylcellulose) (HPC)) was 107 % of control. The T/C [6] was 108 % of control.

In the case of Nc1ncnc2nc[nH]c12, the T/C [12] is reported as 99 % of control, the T/C (dose: 64.0 mg/kg/injection, schedule: Q01DX009 (ip), vehicle: Klucel (hydroxypropylcellulose) (HPC)) is reported as 99 % of control and the T/C (dose: 128.0 mg/kg/injection, schedule: Q01DX009 (ip), vehicle: Klucel (hydroxypropylcellulose) (HPC)) is reported as 98 % of control.

Cc1oc2c(C)c3oc(=O)cc(C)c3cc2c1CCl was tested, and the T/C [7] was 102 % of control, the T/C [3] was 101 % of control and the T/C [4] was 95 % of control.

O=C(O)CP(=O)(O)O was tested, and the T/C (dose: 50.0 mg/kg/injection, schedule: Q01DX009 (ip), vehicle: saline) was 96 % of control, the T/C (dose: 100.0 mg/kg/injection, schedule: Q01DX009 (ip), vehicle: saline) was 96 % of control and the T/C (dose: 200.0 mg/kg/injection, schedule: Q01DX009 (ip), vehicle: saline) was 152 % of control.

With C[n+]1cccc(NC(=O)c2ccc(NC(=O)C34CCC(C(=O)Nc5ccc(C(=O)Nc6ccc[n+](C)c6)cc5)(CC3)CC4)cc2)c1 the T/C (dose: 5.0 mg/kg/injection, schedule: Q01DX009 (ip), vehicle: saline with Tween-80) was 93 % of control and the T/C (dose: 10.0 mg/kg/injection, schedule: Q01DX009 (ip), vehicle: saline with Tween-80) was 99 % of control.

For N#CCCSC(=S)C1CCCC1=N (stereo not drawn), the T/C [7] was 105 % of control, the T/C [3] was 101 % of control and the T/C [4] was 106 % of control. For the same compound, the T/C [5] was 93 % of control, the T/C [8] was 98 % of control and the T/C [9] was 106 % of control.

In the case of N#CC(=C1SCS1)[N+](=O)[O-], the T/C (dose: 0.75 mg/kg/injection, schedule: Q01DX009 (ip), vehicle: saline with Tween-80) is reported as 94 % of control, the T/C (dose: 1.5 mg/kg/injection, schedule: Q01DX009 (ip), vehicle: saline with Tween-80) is reported as 102 % of control and the T/C (dose: 3.0 mg/kg/injection, schedule: Q01DX009 (ip), vehicle: saline with Tween-80) is reported as 102 % of control. For the same compound, the T/C (dose: 6.0 mg/kg/injection, schedule: Q01DX009 (ip), vehicle: saline with Tween-80) was 92 % of control.

CCCCCCCCCCCC(c1ccccc1)[N+](C)(C)Cc1ccccc1 (stereo not drawn) was tested, and the T/C (dose: 1.0 mg/kg/injection, schedule: Q01DX009 (ip), vehicle: saline) was 98 % of control and the T/C (dose: 2.0 mg/kg/injection, schedule: Q01DX009 (ip), vehicle: saline) was 124 % of control.
